Results as given in patent publication US20100267561A1, “HERBICIDAL PYRIDAZINONE DERIVATIVES” (priority 2007, published 2010).

What was measured:
Assay in all cases: Test B pre-/postemergence plant response
Assay type in all cases: in vivo
[1] = test system: Italian ryegrass (Lolium multiflorum)
Text: (§1) Seeds of plant species selected from blackgrass (Alopecurus myosuroides), downy bromegrass (Bromus tectorum), green foxtail (Setaria viridis), Italian ryegrass (Lolium multiflorum), wheat (Triticum aestivum), wild oat (Avena fatua), catchweed bedstraw (Galium aparine), bermudagrass (Cynodon dactylon), surinam grass (Brachiaria decumbens), cocklebur (Xanthium strumarium), corn (Zea mays), large crabgrass (Digitaria sanguinalis), woolly cupgrass (Eriochloa villosa), giant foxtail (Setaria faberii), goosegrass (Eleusine indica), johnsongrass (Sorghum halepense), kochia (Kochia scoparia), lambsquarters (Chenopodium album), morningglory (Ipomoea coccinea), eastern black (E.B.) nightshade (Solanum ptycanthum), yellow nutsedge (Cyperus esculentus), pigweed (Amaranthus retroflexus), common ragweed (Ambrosia elation), Russian thistle (Salsola iberica), soybean (Glycine max), common (oilseed) sunflower (Helianthus annuus), and velvetleaf (Abutilon theophrasti) were planted and treated preemergence with test chemicals formulated in a non-phytotoxic solvent mixture which included a surfactant.
(§2) At the same time, plants selected from these crop and weed species and also winter barley (Hordeum vulgare), canarygrass (Phalaris minor), chickweed (Stellaria media) and windgrass (Apera spica-venti) were treated with postemergence applications of some of the test chemicals formulated in the same manner. Plants ranged in height from 2 to 18 cm (1- to 4-leaf stage) for postemergence treatments.
(§3) Plant species in the flooded paddy test consisted of rice (Oryza sativa), umbrella sedge (Cyperus difformis), ducksalad (Heteranthera limosa) and barnyardgrass (Echinochloa crus-galli) grown to the 2-leaf stage for testing. At time of treatment, test pots were flooded to 3 cm above the soil surface, treated by application of test compounds directly to the paddy water, and then maintained at that water depth for the duration of the test. Treated plants and controls were maintained in a greenhouse for 13 to 15 days, after which time all species were compared to controls and visually evaluated. Plant response ratings, summarized in Table B, are based on a scale of 0 to 100 where 0 is no effect and 100 is complete control. A dash (-) response means no test result.

[2] = test system: bermudagrass (Cynodon dactylon)
Text: as §1, §2, §3

corn (Zea mays) = test system: corn (Zea mays)
Text: as §1, §2, §3

[3] = test system: surinam grass (Brachiaria decumbens)
Text: as §1, §2, §3

[4] = test system: lambsquarters (Chenopodium album)
Text: as §1, §2, §3

[5] = test system: giant foxtail (Setaria faberii)
Text: as §1, §2, §3

[6] = test system: morningglory (Ipomoea coccinea)
Text: as §1, §2, §3

[7] = test system: eastern black (E.B.) nightshade (Solanum ptycanthum); settings: Preemergence
Text: as §1, §2, §3

[8] = test system: johnsongrass (Sorghum halepense)
Text: as §1, §2, §3

[9] = test system: yellow nutsedge (Cyperus esculentus)
Text: as §1, §2, §3

[10] = test system: common ragweed (Ambrosia elation)
Text: as §1, §2, §3

[11] = test system: blackgrass (Alopecurus myosuroides)
Text: as §1, §2, §3

wild oat (Avena fatua) = test system: wild oat (Avena fatua)
Text: as §1, §2, §3

kochia (Kochia scoparia) = test system: kochia (Kochia scoparia)
Text: as §1, §2, §3

[12] = Postemergence, 31 g ai/ha, scale 0 to 100, 0 no effect, 100 complete control
[13] = Postemergence, 62 g ai/ha, scale 0 to 100
[14] = Postemergence, 125 g ai/ha, scale 0 to 100
[15] = Postemergence, 250 g ai/ha, scale 0 to 100
[16] = Preemergence, 31 g ai/ha, 0 to 100 scale, 0 no effect, 100 complete control
[17] = Preemergence, 62 g ai/ha, scale 0 to 100
[18] = Preemergence, 125 g ai/ha, scale 0 to 100
[19] = Preemergence, 250 g ai/ha, scale 0 to 100
[20] = 250 g ai/ha, preemergence, 0-100 scale

Substance: 5-[3-(4-chlorophenyl)-5-methyl-1H-pyrazol-1-yl]-1,6-dihydro-1-methyl-6-oxo-4-pyridazinyl-1-methylethyl carbonate [Compound 7]
- Plant response rating, Ryegrass, Italian [1, 12]: 95
- Plant response rating, Ryegrass, Italian [1, 13]: 100
- Plant response rating, Ryegrass, Italian [1, 14]: 100
- Plant response rating, Ryegrass, Italian [1, 15]: 100
- Plant response rating, Ryegrass, Italian [1, 16]: 90
- Plant response rating, Ryegrass, Italian [1, 17]: 100
- Plant response rating, Ryegrass, Italian [1, 18]: 100
- Plant response rating, Ryegrass, Italian [1, 19]: 100
- Bermudagrass plant response rating [2, 20]: 100
- Plant response rating, Bermudagrass [2, 12]: 100
- Plant response rating, Bermudagrass [2, 13]: 100
- Plant response rating, Bermudagrass [2, 14]: 100
- Plant response rating, Bermudagrass [2, 15]: 100
- Plant response rating, Bermudagrass [2, 16]: 60
- Plant response rating, Bermudagrass [2, 17]: 90
- Plant response rating, Bermudagrass [2, 18]: 90
- Plant response rating, Corn (corn (Zea mays); [12]): 90
- Plant response rating, Corn (corn (Zea mays); [13]): 90
- Plant response rating, Corn (corn (Zea mays); [14]): 90
- Plant response rating, Corn (corn (Zea mays); [15]): 90
- Plant response rating, Corn (corn (Zea mays); [16]): 90
- Plant response rating, Corn (corn (Zea mays); [17]): 95
- Plant response rating, Corn (corn (Zea mays); [18]): 98
- Plant response rating, Corn (corn (Zea mays); [19]): 100
- Plant response rating, Surinam Grass [3, 12]: 100
- Plant response rating, Surinam Grass [3, 13]: 100
- Plant response rating, Surinam Grass [3, 14]: 100
- Plant response rating, Surinam Grass [3, 15]: 100
- Plant response rating, Surinam Grass [3, 16]: 98
- Plant response rating, Surinam Grass [3, 17]: 100
- Plant response rating, Surinam Grass [3, 18]: 100
- Plant response rating, Surinam Grass [3, 19]: 100
- Plant response rating, Lambsquarters [4, 12]: 0
- Plant response rating, Lambsquarters [4, 13]: 0
- Plant response rating, Lambsquarters [4, 14]: 0
- Plant response rating, Lambsquarters [4, 15]: 10
- Plant response rating, Lambsquarters [4, 16]: 30
- Plant response rating, Lambsquarters [4, 17]: 30
- Plant response rating, Lambsquarters [4, 18]: 90
- Plant response rating, Lambsquarters [4, 19]: 100
- Plant response rating, Foxtail, Giant [5, 12]: 98
- Plant response rating, Foxtail, Giant [5, 13]: 100
- Plant response rating, Foxtail, Giant [5, 14]: 100
- Plant response rating, Foxtail, Giant [5, 15]: 100
- Plant response rating, Foxtail, Giant [5, 16]: 100
- Plant response rating, Foxtail, Giant [5, 17]: 100
- Plant response rating, Foxtail, Giant [5, 18]: 100
- Plant response rating, Foxtail, Giant [5, 19]: 100
- Plant response rating, Morningglory [6, 12]: 0
- Plant response rating, Morningglory [6, 13]: 0
- Plant response rating, Morningglory [6, 14]: 0
- Plant response rating, Morningglory [6, 15]: 0
- Plant response rating, Morningglory [6, 16]: 0
- Plant response rating, Morningglory [6, 17]: 0
- Plant response rating, Morningglory [6, 18]: 0
- Plant response rating, Morningglory [6, 19]: 0
- Plant response rating, Nightshade, E. B. ([7]; 31 g ai/ha, 0 to 100 scale, 0 no effect, 100 complete control): 30
- Plant response rating, Nightshade, E. B. ([7]; 62 g ai/ha, scale 0 to 100): 30
- Plant response rating, Nightshade, E. B. ([7]; 125 g ai/ha, scale 0 to 100): 100
- Plant response rating, Nightshade, E. B. ([7]; 250 g ai/ha, scale 0 to 100): 100
- Plant response rating, Johnsongrass [8, 14]: 0
- Plant response rating, Johnsongrass [8, 15]: 0
- Plant response rating, Johnsongrass [8, 16]: 75
- Plant response rating, Johnsongrass [8, 17]: 98
- Plant response rating, Johnsongrass [8, 18]: 100
- Plant response rating, Johnsongrass [8, 19]: 100
- Plant response rating, Nutsedge, Yellow [9, 12]: 0
- Plant response rating, Nutsedge, Yellow [9, 13]: 0
- Plant response rating, Nutsedge, Yellow [9, 14]: 0
- Plant response rating, Nutsedge, Yellow [9, 15]: 0
- Plant response rating, Nutsedge, Yellow [9, 16]: 0
- Plant response rating, Nutsedge, Yellow [9, 17]: 0
- Plant response rating, Nutsedge, Yellow [9, 18]: 0
- Plant response rating, Nutsedge, Yellow [9, 19]: 0
- Plant response rating, Ragweed [10, 12]: 0
- Plant response rating, Ragweed [10, 13]: 0
- Plant response rating, Ragweed [10, 14]: 0
- Plant response rating, Ragweed [10, 15]: 0
- Plant response rating, Ragweed [10, 16]: 0
- Plant response rating, Ragweed [10, 17]: 0
- Plant response rating, Ragweed [10, 18]: 0
- Plant response rating, Ragweed [10, 19]: 20
- Blackgrass plant response rating [11, 20]: 100
- Plant response rating, Blackgrass [11, 12]: 85
- Plant response rating, Blackgrass [11, 13]: 90
- Plant response rating, Blackgrass [11, 14]: 100
- Plant response rating, Blackgrass [11, 15]: 100
- Plant response rating, Blackgrass [11, 16]: 70
- Plant response rating, Blackgrass [11, 17]: 85
- Plant response rating, Blackgrass [11, 18]: 100
- Plant response rating, Oat, Wild (wild oat (Avena fatua); [12]): 95
- Plant response rating, Oat, Wild (wild oat (Avena fatua); [13]): 95
- Plant response rating, Oat, Wild (wild oat (Avena fatua); [14]): 95
- Plant response rating, Oat, Wild (wild oat (Avena fatua); [15]): 95
- Plant response rating, Oat, Wild (wild oat (Avena fatua); [16]): 0
- Plant response rating, Oat, Wild (wild oat (Avena fatua); [17]): 70
- Plant response rating, Oat, Wild (wild oat (Avena fatua); [18]): 80
- Plant response rating, Oat, Wild (wild oat (Avena fatua); [19]): 85
- Plant response rating, Kochia (kochia (Kochia scoparia); [12]): 0
- Plant response rating, Kochia (kochia (Kochia scoparia); [13]): 0
- Plant response rating, Kochia (kochia (Kochia scoparia); [14]): 0
- Plant response rating, Kochia (kochia (Kochia scoparia); [15]): 10
- Plant response rating, Kochia (kochia (Kochia scoparia); [16]): 0
- Plant response rating, Kochia (kochia (Kochia scoparia); [17]): 0
- Plant response rating, Kochia (kochia (Kochia scoparia); [18]): 0
- Plant response rating, Kochia (kochia (Kochia scoparia); [19]): 0
